# Reference: patent US6099845A, “Process for the preparation of Rhus verniciflua extract and anti-cancer composition containing same” (Forest Genetics Research Institute, priority 1997, dated 2000)
# “Also recorded” adds a separate entry of the source.
# Tests used:
# [1] = system: formation of peroxidized lipids; conditions: cited from earlier work
# [2] = system: allergy and dermatopathies; conditions: cited from earlier work
# [3] = system: blood vessel and capillary; conditions: cited from earlier work
# [4] = DPPH free radical decolorization (anti-oxidative activity); assay type: biochemical; conditions: 0.04% ethanol solution, 30 min, room temperature, 517 nm
# Procedure: DPPH(1,1-diphenyl-2-picrylhydrazyl) is a free radical which is very stable in an organic solution. […] Accordingly, it is advantageously employed in measuring anti-oxidative activity of a material.
# DPPH was dissolved in absolute ethanol to a concentration of […]("DPPH ethanol solution"). To this solution, the extract of R. verniciflua obtained in Example 1 and Sesamol (Sigma, U.S.A.), a natural anti-oxidant were added to a concentration of 0.04%, respectively to obtain an "extract ethanol solution" and a "Sesamol ethanol solution".
# 2 ml of the DPPH ethanol solution was put into each of two 4 me disposable spectrophotometer cuvettes(Muller ratiolab, Germany). Then, 2 ml of the extract ethanol solution was placed in one cuvette and 2 ml of the Sesamol ethanol solution was put into the other cuvette. The mixtures were reacted at room temperature for 30 min. As a control, a cuvette containing 4 ml of the DPPH ethanol solution was used. The absorption of each cuvette was determined at 517 nm with a spectrophotometer(HP 8453 diode array spectrophotometer). The absorption of the extract ethanol solution was calibrated with the absorption of the control, and the capability of the extract ethanol solution to decolorize the purple color of the DPPH ethanol solution was calculated based on the calibrated absorption of the Sesamol ethanol solution.
# cancer = conditions: cited from earlier work
# F9 teratocarcinoma cells = conditions: cited from earlier work
# angiogenesis = conditions: cited from earlier work
# cancer cells = conditions: cited from earlier work
# LamB1 gene = assay type: cell-based, mouse; conditions: F9 cells, 7 days; FIG. 8
smiles,measurement,setting,value
"O=c1c(O)c(-c2ccc(O)c(O)c2)oc2cc(O)ccc12 (single isomer, unassigned) [Fisetin, 3,3',4',7-tetrahydroxyflavone]",suppressing the formation of peroxidized lipids,[1],suppressing the formation of peroxidized lipids
same,inhibiting allergy and dermatopathies,[2],inhibiting allergy and dermatopathies
same,protecting blood vessel and capillary,[3],protecting blood vessel and capillary
"O=C1c2ccc(O)cc2OC(c2ccc(O)c(O)c2)C1O (single isomer, unassigned) [fustin, 3,3',4',7-tetrahydroxyflavanone]",suppressing the formation of peroxidized lipids,[1],suppressing the formation of peroxidized lipids
same,inhibiting allergy and dermatopathies,[2],inhibiting allergy and dermatopathies
same,protecting blood vessel and capillary,[3],protecting blood vessel and capillary
Oc1ccc2c(c1)OCO2 [Sesamol],anti-oxidative activity relative to Sesamol's 100,[4],100
CC1(C)CC[C@]2(C(=O)O)CC[C@]3(C)C(=CC[C@@H]4[C@@]5(C)CC[C@H](O)C(C)(C)[C@@H]5CC[C@]43C)[C@@H]2C1 [oleanolic acid],anti-cancer activity (in words),cancer,have anti-cancer activity
same,differentiation of F9 teratocarcinoma cells (in words),F9 teratocarcinoma cells,capable of differentiating F9 teratocarcinoma cells into normal cells; also recorded: induce the differentiation of F9 teratocarcinoma cells by regulating the gene involved in the differentiation
same,inhibitory activity on angiogenesis (in words),angiogenesis,some inhibitory activity on angiogenesis
CC1=C(/C=C/C(C)=C/C=C/C(C)=C/C(=O)O)C(C)(C)CCC1 [retinoic acid],differentiation of F9 teratocarcinoma cells (in words),F9 teratocarcinoma cells,transforms into a primitive developmental form
same,differentiation of cancer cells (in words),cancer cells,induce the differentiation of cancer cells to normal cells
same,inhibitory activity on angiogenesis (in words),angiogenesis,inhibit angiogenesis
same,expression of LamB1 gene (northern blotting),LamB1 gene,converts the gene of the cancer cell to express LamBl gene
CC1CCC2(C(=O)O)CCC3(C)C(=CCC4C5(C)CCC(O)C(C)(C)C5CCC43C)C2C1C (stereo not shown) [urusolic acid],anti-cancer activity (in words),cancer,have anti-cancer activity
same,differentiation of F9 teratocarcinoma cells (in words),F9 teratocarcinoma cells,capable of differentiating F9 teratocarcinoma cells into normal cells; also recorded: induce the differentiation of F9 teratocarcinoma cells by regulating the gene involved in the differentiation
same,inhibitory activity on angiogenesis (in words),angiogenesis,some inhibitory activity on angiogenesis
C=C1CCC(O)CC1=CC=C1CCCC2(C)C1CCC2C(C)CCCC(C)C (stereo not shown) [vitamin D3],differentiation of cancer cells (in words),cancer cells,induce the differentiation of cancer cells to normal cells
same,inhibitory activity on angiogenesis (in words),angiogenesis,inhibit angiogenesis
